Source: the kinase profiling compilation of Christmann-Franck et al. (2016)

Columns and labels:
Assay in all cases: radiometric filter-binding kinase assay
[1] = molecular target: BRSK1 (human) (UniProt Q8TDC3)
[2] = molecular target: BTK (human) (UniProt Q06187)
[3] = molecular target: CAMKK2 (human) (UniProt Q96RR4)
[4] = molecular target: CDK2 CCNA2 (human) (UniProt P20248+P24941)
[5] = molecular target: CSK (human) (UniProt P41240)
[6] = molecular target: CaMK1 (human) (UniProt Q14012)
[7] = molecular target: DYRK2 (human) (UniProt Q92630)
Sequence of DYRK2 (human) (Q92630 whole entry, looked up): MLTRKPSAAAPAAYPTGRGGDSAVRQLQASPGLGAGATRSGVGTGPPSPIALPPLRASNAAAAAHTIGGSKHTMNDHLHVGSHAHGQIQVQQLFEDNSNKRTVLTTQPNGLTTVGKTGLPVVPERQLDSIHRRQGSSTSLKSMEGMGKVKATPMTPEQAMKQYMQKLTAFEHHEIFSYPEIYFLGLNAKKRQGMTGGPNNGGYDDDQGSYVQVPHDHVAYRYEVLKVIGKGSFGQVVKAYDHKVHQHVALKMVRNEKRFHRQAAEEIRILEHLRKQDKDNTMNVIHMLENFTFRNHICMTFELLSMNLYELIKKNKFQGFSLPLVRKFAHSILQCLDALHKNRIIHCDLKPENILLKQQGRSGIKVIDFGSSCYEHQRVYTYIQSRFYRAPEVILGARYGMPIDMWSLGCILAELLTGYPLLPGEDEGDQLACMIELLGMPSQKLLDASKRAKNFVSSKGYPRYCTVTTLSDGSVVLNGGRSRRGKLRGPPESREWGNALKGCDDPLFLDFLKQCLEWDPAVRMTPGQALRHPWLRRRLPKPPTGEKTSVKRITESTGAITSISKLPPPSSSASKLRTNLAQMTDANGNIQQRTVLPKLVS

[8] = molecular target: EPHA2 (human) (UniProt P29317)
[9] = molecular target: EPHA4 (human) (UniProt P54764)
[10] = molecular target: EPHB2 (human) (UniProt P29323)
[11] = molecular target: ERBB4 (human) (UniProt Q15303)
[12] = molecular target: HIPK3 (human) (UniProt Q9H422)
[13] = molecular target: INSR (human) (UniProt P06213)
[14] = molecular target: INSRR (human) (UniProt P14616)
Sequence of INSRR (human) (P14616 whole entry, looked up): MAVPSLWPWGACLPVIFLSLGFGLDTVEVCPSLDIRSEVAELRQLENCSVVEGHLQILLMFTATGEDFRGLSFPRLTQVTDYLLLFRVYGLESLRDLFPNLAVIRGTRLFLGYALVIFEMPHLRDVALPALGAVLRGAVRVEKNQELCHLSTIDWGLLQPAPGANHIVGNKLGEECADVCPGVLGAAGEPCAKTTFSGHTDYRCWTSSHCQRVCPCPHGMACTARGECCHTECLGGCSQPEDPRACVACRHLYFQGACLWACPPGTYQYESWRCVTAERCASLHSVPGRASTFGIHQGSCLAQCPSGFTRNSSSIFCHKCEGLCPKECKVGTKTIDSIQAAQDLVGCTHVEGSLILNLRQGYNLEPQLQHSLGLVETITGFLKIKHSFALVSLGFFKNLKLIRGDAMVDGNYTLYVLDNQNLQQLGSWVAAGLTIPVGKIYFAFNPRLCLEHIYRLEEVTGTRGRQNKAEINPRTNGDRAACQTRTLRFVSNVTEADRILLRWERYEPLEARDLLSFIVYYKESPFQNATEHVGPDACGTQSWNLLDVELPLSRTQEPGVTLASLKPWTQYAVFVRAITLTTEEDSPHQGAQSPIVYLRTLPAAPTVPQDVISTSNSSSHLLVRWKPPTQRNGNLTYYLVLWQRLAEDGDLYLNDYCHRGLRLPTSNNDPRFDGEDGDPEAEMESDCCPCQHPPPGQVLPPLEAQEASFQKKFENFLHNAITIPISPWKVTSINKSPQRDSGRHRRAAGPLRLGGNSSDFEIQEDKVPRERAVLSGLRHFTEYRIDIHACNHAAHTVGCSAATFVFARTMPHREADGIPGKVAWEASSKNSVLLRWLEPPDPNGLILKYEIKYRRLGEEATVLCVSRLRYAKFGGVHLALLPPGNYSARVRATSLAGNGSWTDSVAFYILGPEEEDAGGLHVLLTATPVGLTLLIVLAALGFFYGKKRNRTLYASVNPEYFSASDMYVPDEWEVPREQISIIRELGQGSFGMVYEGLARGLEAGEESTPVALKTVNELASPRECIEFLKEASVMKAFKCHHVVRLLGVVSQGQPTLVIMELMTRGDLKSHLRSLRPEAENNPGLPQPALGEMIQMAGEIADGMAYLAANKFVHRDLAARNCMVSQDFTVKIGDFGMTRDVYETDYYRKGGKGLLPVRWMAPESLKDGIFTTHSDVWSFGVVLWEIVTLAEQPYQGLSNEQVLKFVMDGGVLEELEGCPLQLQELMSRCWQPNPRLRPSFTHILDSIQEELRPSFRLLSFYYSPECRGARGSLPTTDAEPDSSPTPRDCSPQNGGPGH

[15] = molecular target: JAK2 JH1 JH2 (human) (UniProt O60674)
[16] = system: LCK (mouse); conditions: accession and sequence are those of the human protein
[17] = molecular target: MAP2K1 (human) (UniProt Q02750)
Sequence of MAP2K1 (human) (Q02750 whole entry, looked up): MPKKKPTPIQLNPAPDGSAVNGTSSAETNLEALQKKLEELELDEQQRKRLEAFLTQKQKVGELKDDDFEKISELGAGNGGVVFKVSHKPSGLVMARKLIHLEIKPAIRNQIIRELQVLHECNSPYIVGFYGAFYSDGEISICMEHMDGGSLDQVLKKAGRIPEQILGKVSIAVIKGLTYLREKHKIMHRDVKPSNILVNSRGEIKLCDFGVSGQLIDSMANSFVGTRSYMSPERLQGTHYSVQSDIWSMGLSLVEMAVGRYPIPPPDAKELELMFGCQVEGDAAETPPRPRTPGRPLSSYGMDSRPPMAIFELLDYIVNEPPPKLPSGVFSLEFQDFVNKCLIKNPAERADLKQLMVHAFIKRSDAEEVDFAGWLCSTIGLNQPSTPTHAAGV

[18] = molecular target: MAPK15 (human) (UniProt Q8TD08)
Sequence of MAPK15 (human) (Q8TD08 whole entry, looked up): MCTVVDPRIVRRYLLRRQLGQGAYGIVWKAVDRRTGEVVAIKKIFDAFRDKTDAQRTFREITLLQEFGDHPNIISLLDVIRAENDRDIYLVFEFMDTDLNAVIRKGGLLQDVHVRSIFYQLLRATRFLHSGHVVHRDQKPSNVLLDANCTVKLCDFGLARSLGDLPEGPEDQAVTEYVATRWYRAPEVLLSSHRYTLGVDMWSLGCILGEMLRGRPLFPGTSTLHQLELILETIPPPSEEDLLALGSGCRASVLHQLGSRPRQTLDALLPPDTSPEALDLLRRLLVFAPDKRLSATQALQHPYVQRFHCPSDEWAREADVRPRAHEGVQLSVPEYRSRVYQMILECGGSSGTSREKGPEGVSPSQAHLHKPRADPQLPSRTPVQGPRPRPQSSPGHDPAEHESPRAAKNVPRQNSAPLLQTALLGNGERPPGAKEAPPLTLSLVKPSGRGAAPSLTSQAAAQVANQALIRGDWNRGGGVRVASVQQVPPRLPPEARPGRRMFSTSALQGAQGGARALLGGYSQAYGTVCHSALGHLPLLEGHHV

[19] = molecular target: MAPKAPK2 (human) (UniProt P49137)
[20] = molecular target: MARK1 (human) (UniProt Q9P0L2)
[21] = molecular target: MARK2 (human) (UniProt Q7KZI7)
[22] = molecular target: MINK1 (human) (UniProt Q8N4C8)
[23] = molecular target: MKNK1 (human) (UniProt Q9BUB5)
Sequence of MKNK1 (human) (Q9BUB5 whole entry, looked up): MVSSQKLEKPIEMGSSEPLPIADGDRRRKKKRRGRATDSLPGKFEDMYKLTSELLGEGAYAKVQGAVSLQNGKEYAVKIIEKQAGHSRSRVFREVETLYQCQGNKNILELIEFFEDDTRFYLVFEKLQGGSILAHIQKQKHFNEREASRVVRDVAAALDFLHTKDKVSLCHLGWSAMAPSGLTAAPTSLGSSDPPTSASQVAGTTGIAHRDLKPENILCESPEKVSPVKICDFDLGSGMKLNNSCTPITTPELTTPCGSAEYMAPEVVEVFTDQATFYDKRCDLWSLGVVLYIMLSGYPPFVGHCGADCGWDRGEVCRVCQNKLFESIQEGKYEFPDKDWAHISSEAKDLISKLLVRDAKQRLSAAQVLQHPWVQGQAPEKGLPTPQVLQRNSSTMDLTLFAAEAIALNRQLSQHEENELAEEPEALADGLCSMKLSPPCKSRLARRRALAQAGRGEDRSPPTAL

[24] = molecular target: MST4 (human) (UniProt Q9P289)
[25] = molecular target: NEK2 (human) (UniProt P51955)
[26] = molecular target: NEK6 (human) (UniProt Q9HC98)
Sequence of NEK6 (human) (Q9HC98 whole entry, looked up): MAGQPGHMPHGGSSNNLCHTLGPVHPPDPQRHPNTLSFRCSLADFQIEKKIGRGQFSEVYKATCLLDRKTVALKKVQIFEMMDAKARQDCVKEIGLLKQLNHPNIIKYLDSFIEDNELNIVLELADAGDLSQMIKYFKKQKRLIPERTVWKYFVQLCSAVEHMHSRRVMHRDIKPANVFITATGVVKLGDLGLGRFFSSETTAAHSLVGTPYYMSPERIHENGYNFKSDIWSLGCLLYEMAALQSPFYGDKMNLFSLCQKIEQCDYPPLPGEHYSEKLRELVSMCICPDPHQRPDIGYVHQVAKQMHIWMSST

[27] = molecular target: NUAK1 (human) (UniProt O60285)
[28] = molecular target: PAK7 (human) (UniProt Q9P286)
[29] = molecular target: PHKG1 (human) (UniProt Q16816)
[30] = molecular target: PRKACA (human) (UniProt P17612)
[31] = molecular target: PRKCA (human) (UniProt P17252)
[32] = molecular target: RIPK2 (human) (UniProt O43353)
Sequence of RIPK2 (human) (O43353 whole entry, looked up): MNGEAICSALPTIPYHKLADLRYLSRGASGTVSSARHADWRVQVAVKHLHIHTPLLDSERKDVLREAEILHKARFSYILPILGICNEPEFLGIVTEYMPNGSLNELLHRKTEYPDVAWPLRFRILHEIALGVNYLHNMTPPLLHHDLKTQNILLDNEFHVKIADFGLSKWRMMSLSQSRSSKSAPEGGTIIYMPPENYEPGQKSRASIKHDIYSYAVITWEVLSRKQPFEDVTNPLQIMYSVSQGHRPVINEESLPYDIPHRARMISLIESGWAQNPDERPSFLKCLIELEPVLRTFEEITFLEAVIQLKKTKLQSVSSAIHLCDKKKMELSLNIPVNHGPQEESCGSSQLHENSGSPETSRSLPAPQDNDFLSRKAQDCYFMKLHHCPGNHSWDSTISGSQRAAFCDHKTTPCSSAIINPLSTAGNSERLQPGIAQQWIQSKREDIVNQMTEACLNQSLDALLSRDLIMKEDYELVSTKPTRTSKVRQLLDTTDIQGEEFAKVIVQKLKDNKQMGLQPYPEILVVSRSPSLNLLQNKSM

[33] = molecular target: RPS6KA5 KD1 KD2 (human) (UniProt O75582)
[34] = molecular target: SRPK1 (human) (UniProt Q96SB4)

`COc1ccc(N(C(=O)Nc2c(C)cccc2C)c2cc(Nc3ccc(N4CCN(C)CC4)cc3)ncn2)c(OC)c1` showed a residual activity ([1]; compound 0.01 µM) of 103%, a residual activity ([1]; compound 0.1 µM) of 99% and a residual activity ([1]; compound 1.0 µM) of 86%. For the same molecule, the residual activity ([2]; compound 0.01 µM) was 91%, the residual activity ([2]; compound 0.1 µM) was 38% and the residual activity ([2]; compound 1.0 µM) was 21%. It also gave a residual activity ([3]; compound 0.01 µM) of 105%, a residual activity ([3]; compound 0.1 µM) of 102% and a residual activity ([3]; compound 1.0 µM) of 89%. It also gave a residual activity ([4]; compound 0.01 µM) of 120%, a residual activity ([4]; compound 0.1 µM) of 121% and a residual activity ([4]; compound 1.0 µM) of 106%. The residual activity ([5]; compound 0.01 µM) was 119%, the residual activity ([5]; compound 0.1 µM) was 101% and the residual activity ([5]; compound 1.0 µM) was 38%. For the same molecule, the residual activity ([6]; compound 0.01 µM) was 97%, the residual activity ([6]; compound 0.1 µM) was 90% and the residual activity ([6]; compound 1.0 µM) was 90%. For the same molecule, the residual activity ([7]; compound 0.01 µM) was 89%, the residual activity ([7]; compound 0.1 µM) was 85% and the residual activity ([7]; compound 1.0 µM) was 93%. The residual activity ([8]; compound 0.01 µM) was 51%, the residual activity ([8]; compound 0.1 µM) was 15% and the residual activity ([8]; compound 1.0 µM) was 6%. The residual activity ([9]; compound 0.01 µM) was 71%, the residual activity ([9]; compound 0.1 µM) was 12% and the residual activity ([9]; compound 1.0 µM) was 6%. For the same molecule, the residual activity ([10]; compound 0.01 µM) was 109%, the residual activity ([10]; compound 0.1 µM) was 43% and the residual activity ([10]; compound 1.0 µM) was 1%. For the same molecule, the residual activity ([11]; compound 0.01 µM) was 90%, the residual activity ([11]; compound 1.0 µM) was 18% and the residual activity ([12]; compound 0.01 µM) was 80%. For the same molecule, the residual activity ([12]; compound 0.1 µM) was 86%, the residual activity ([12]; compound 1.0 µM) was 74% and the residual activity ([13]; compound 0.01 µM) was 115%. The residual activity ([13]; compound 0.1 µM) was 106%, the residual activity ([13]; compound 1.0 µM) was 106% and the residual activity ([14]; compound 0.01 µM) was 113%. For the same molecule, the residual activity ([14]; compound 0.1 µM) was 112%, the residual activity ([14]; compound 1.0 µM) was 107% and the residual activity ([15]; compound 0.01 µM) was 99%. The residual activity ([15]; compound 0.1 µM) was 88%, the residual activity ([15]; compound 1.0 µM) was 89% and the residual activity ([16]; compound 0.01 µM) was 63%. For the same molecule, the residual activity ([16]; compound 0.1 µM) was 54%, the residual activity ([16]; compound 1.0 µM) was 47% and the residual activity ([17]; compound 0.01 µM) was 107%. For the same molecule, the residual activity ([17]; compound 0.1 µM) was 106%, the residual activity ([17]; compound 1.0 µM) was 97% and the residual activity ([18]; compound 0.01 µM) was 108%. It also gave a residual activity ([18]; compound 0.1 µM) of 112%, a residual activity ([18]; compound 1.0 µM) of 94% and a residual activity ([19]; compound 0.01 µM) of 101%. The residual activity ([19]; compound 0.1 µM) was 100%, the residual activity ([19]; compound 1.0 µM) was 97% and the residual activity ([20]; compound 0.01 µM) was 88%. It also gave a residual activity ([20]; compound 0.1 µM) of 87%, a residual activity ([20]; compound 1.0 µM) of 53% and a residual activity ([21]; compound 0.01 µM) of 101%. For the same molecule, the residual activity ([21]; compound 0.1 µM) was 90%, the residual activity ([21]; compound 1.0 µM) was 63% and the residual activity ([22]; compound 0.01 µM) was 94%. The residual activity ([22]; compound 0.1 µM) was 76%, the residual activity ([22]; compound 1.0 µM) was 18% and the residual activity ([23]; compound 0.01 µM) was 109%. For the same molecule, the residual activity ([23]; compound 0.1 µM) was 116%, the residual activity ([23]; compound 1.0 µM) was 112% and the residual activity ([24]; compound 0.01 µM) was 100%. It also gave a residual activity ([24]; compound 0.1 µM) of 95%, a residual activity ([24]; compound 1.0 µM) of 78% and a residual activity ([25]; compound 0.01 µM) of 112%. It also gave a residual activity ([25]; compound 0.1 µM) of 93%, a residual activity ([25]; compound 1.0 µM) of 95% and a residual activity ([26]; compound 0.01 µM) of 102%. It also gave a residual activity ([26]; compound 0.1 µM) of 90%, a residual activity ([26]; compound 1.0 µM) of 91% and a residual activity ([27]; compound 0.01 µM) of 97%. For the same molecule, the residual activity ([27]; compound 0.1 µM) was 93%, the residual activity ([27]; compound 1.0 µM) was 64% and the residual activity ([28]; compound 0.01 µM) was 95%. It also gave a residual activity ([28]; compound 0.1 µM) of 91%, a residual activity ([28]; compound 1.0 µM) of 72% and a residual activity ([29]; compound 0.01 µM) of 125%. It also gave a residual activity ([29]; compound 0.1 µM) of 104%, a residual activity ([29]; compound 1.0 µM) of 107% and a residual activity ([30]; compound 0.01 µM) of 91%. It also gave a residual activity ([30]; compound 0.1 µM) of 96%, a residual activity ([30]; compound 1.0 µM) of 79% and a residual activity ([31]; compound 0.01 µM) of 102%. The residual activity ([31]; compound 0.1 µM) was 102%, the residual activity ([31]; compound 1.0 µM) was 104% and the residual activity ([32]; compound 0.01 µM) was 77%. It also gave a residual activity ([32]; compound 0.1 µM) of 37%, a residual activity ([32]; compound 1.0 µM) of 8% and a residual activity ([33]; compound 0.01 µM) of 104%. The residual activity ([33]; compound 0.1 µM) was 105%, the residual activity ([34]; compound 0.01 µM) was 96% and the residual activity ([34]; compound 0.1 µM) was 85%. For the same molecule, the residual activity ([34]; compound 1.0 µM) was 90%.
